From ChEMBL document CHEMBL1124715 (J Med Chem, 1990)

Target: Serotonin 2 (5-HT2) receptor (Rattus norvegicus, UniProt P30994+P08909+P14842)
Test: Binding affinity against 5-hydroxytryptamine 2 receptor of rat frontal cortex using [3H]ketanserin radioligand
Assay type: tissue-based

Row | Structure (SMILES) | Ki [µM]
1 | COc1cc(C(=O)O)c(OC)cc1CC(C)N.Cl (centres undefined) | > 50
2 | CCCCCCCCc1cc(OC)c(CC(C)N)cc1OC.Cl (centres undefined) | 0.003
3 | COc1cc(CC(C)N)c(OC)cc1Cc1ccccc1.Cl (centres undefined) | 0.007
4 | COc1cc(CC(C)N)c(OC)cc1C#N.Cl (centres undefined) | 2.4
5 | CCC(=O)c1cc(OC)c(CC(C)N)cc1OC.Cl (centres undefined) | 0.735
6 | CCCCCCc1cc(OC)c(CC(C)N)cc1OC.Cl (centres undefined) | 0.0025
7 | COc1cc(CC(C)N)c(OC)cc1CCCc1ccccc1.Cl (centres undefined) | 0.01
8 | CCCOC(=O)c1cc(OC)c(CC(C)N)cc1OC (centres undefined) | 2.46
9 | COc1cc(C(=N)N)c(OC)cc1CC(C)N (centres undefined) | 0.007
10 | CCCNC(=O)c1cc(OC)c(CC(C)N)cc1OC (centres undefined) | 7.55
11 | COc1cc(CC(C)N)c(OC)cc1I (centres undefined) | 0.019
12 | COc1cc(CC(C)N)c(OC)cc1N (centres undefined) | 26
13 | COc1cc(CC(C)N)c(OC)cc1Cl (centres undefined) | 0.218
14 | CCCCOC(=O)c1cc(OC)c(CC(C)N)cc1OC (centres undefined) | 1.53
15 | CCCCc1cc(OC)c(CC(C)N)cc1OC (centres undefined) | 0.058
16 | CCOc1cc(OC)c(CC(C)N)cc1OC (centres undefined) | 2.2
17 | COc1cc(C(C)C)c(OC)cc1CC(C)N (centres undefined) | 0.076
18 | COc1cc(C(C)(C)C)c(OC)cc1CC(C)N (centres undefined) | 0.019
19 | COc1cc(CC(C)N)c(OC)cc1O (centres undefined) | > 50
